According to patent US20050136118A1, “Distribution and preparation of germicidal compositions” (priority 2003, published 2005):
Several values for one entry are separate records, joined by “and”; a condition that tells them apart may be missing. Identical values can stand only once. Like-named read-outs stand apart in the source and are kept apart here.

Tests used:
[1] = test system: Bacillus subtilis spores; assay: spore suspension test, killing of Bacillus subtilis spores; format: cell-based; details: for Log Reduction/mL, 4 hr: 4 hr exposure; for Log Reduction/mL, 24 hr: 24 hr exposure; for Log Reduction/mL (3 hr, 20° C., pH = 8): 3 hr exposure; for Log Reduction/mL, 8 hr: 8 hr exposure
[2] = test system: spores; details: 0.3% (w/v) NaHCO3 added; cited from earlier work
[3] = test system: Bacillus subtilis spores; details: cited from earlier work
[4] = test system: Mycobacterium bovis BCG; details: at least 0.25% by weight phthalaldehyde as sole active ingredient, 20° C.; cited from earlier work
[5] = pH range of 3 to 9; cited from earlier work
[6] = test system: Bacillus subtilis spores; details: cited from earlier work; remark: listed apart in the source
[7] = cited from earlier work
[8] = storage stability of phthalaldehyde solution (loss by Cannizzaro reaction); format: physicochemical; details: about 11 weeks
Text: Overall, the Cannizzaro reaction generally leads to loss of phthalaldehyde and a decrease in the germicidal efficacy of the solution. While a pH of from 6 to 10, or 7.5 to 9 generally enhances the efficacy of the phthalaldehyde-carbonate solution, the higher or alkaline pH also generally promotes the Cannizzaro reaction. […] However, about 14% of the phthalaldehyde may be lost if the same solution is stored for about 11 weeks at a pH of 9, at room temperature. Even more of the phthalaldehyde may be converted if the storage period is longer, if the temperature is higher, or if the pH is higher than 9.

[9] = test system: Clostridium sporogenes spores; details: cited from earlier work
[10] = 20° C., composition and pH per label
[11] = 0.25% phthalaldehyde as sole active ingredient, 20° C.

Compound: [Br-].[Na+] [1000 mM NaBr, sodium bromide]
- Log Reduction/mL, 4 hr [1, 10]: 0.0 log/mL
- Log Reduction/mL, 24 hr ([1]; 20° C.): 0.1 log/mL

Compound: [I-].[K+] [1000 mM KI, potassium iodide]
- Log Reduction/mL (3 hr, 20° C., pH = 8) [1]: 0.0 log/mL

Compound: O=CC=O [glyoxal]
- effect of addition of NaHCO3 on sporicidal action [2]: did not affect

Compound: CC(=O)OO [peracetic acid]
- effect of salt concentration on sporicidal activity ([3]; salt ranging from 0 to 1M): not affected

Compound: [F-].[K+] [1000 mM KF, potassium fluoride]
- Log Reduction/mL, 8 hr ([1]; 20° C.): 0.0 log/mL
- Log Reduction/mL, 24 hr ([1]; 20° C.): 0.1 log/mL
- Log Reduction/mL (3 hr, 20° C., pH = 8) [1]: 0.0 log/mL

Compound: [F-].[Li+] [100 mM LiF, lithium fluoride]
- Log Reduction/mL, 24 hr ([1]; 20° C.): 0.0 log/mL

Compound: [I-].[Na+] [1000 mM NaI, sodium iodide]
- Log Reduction/mL, 4 hr [1, 10]: 0.0 log/mL
- Log Reduction/mL, 8 hr ([1]; 20° C.): 0.0 log/mL
- Log Reduction/mL, 24 hr ([1]; 20° C.): 0.1 log/mL

Compound: [Cl-].[Na+] [1000 mM NaCl, sodium chloride]
- Log Reduction/mL, 24 hr ([1]; 20° C.): 0.2 log/mL

Compound: OO [hydrogen peroxide]
- effect of salt concentration on sporicidal activity ([3]; salt ranging from 0 to 1M): not affected

Compound: O=Cc1ccccc1C=O [0.3% OPA, phthalaldehyde]
- time to kill all Mycobacterium bovis BCG in contact (high-level disinfection) [4]: ≤ 10 min
- storage stability of single-component compositions [5]: excellent stability
- time for sporicidal activity [6, 11]: 24 h
- time to achieve sterilization ([6]; 1.0% phthalaldehyde): 10 h
- Log Reduction/mL, 2 hr ([1]; 20° C., 2 hr exposure, composition and pH per label): 0.4 log/mL
- Log Reduction/mL, 6 hr ([1]; 20° C., 6 hr exposure): 0.7 log/mL
- Log Reduction/mL, 8 hr ([1]; 20° C.): ~0.6 log/mL
- Log Reduction/mL (3 hr, 20° C., pH = 8) [1]: 0.10 log/mL
- Log Reduction/mL (20° C., 4 hrs), [NaHCO3], 63 mM ([1]; 4 hrs, labelled solution additionally contains 63 mM NaHCO3): 1.5 log/mL and 1.4 log/mL
- Log Reduction/mL (20° C., 4 hrs), [Phosphate], 63 mM ([1]; 4 hrs, labelled solution additionally contains 63 mM phosphate): 0.7 log/mL
- Log Reduction/mL (20° C., 4 hrs), [NaF], 400 mM ([1]; 4 hrs, labelled solution additionally contains 400 mM NaF): 4.7 log/mL
- Log Reduction/mL (20° C., 4 hrs), [NaF], 0 mM ([1]; 4 hrs, no NaF added to the labelled solution): 0.4 log/mL
- Log Reduction/mL (20° C., 4 hrs), [NaHCO3], 0 mM ([1]; 4 hrs, no NaHCO3): 0.5 log/mL
- Log Reduction/mL (20° C., 4 hrs), [Phosphate], 0 mM ([1]; 4 hrs, no phosphate): 0.4 log/mL
- solubility in water [7]: about 5 % by weight
- loss of phthalaldehyde on storage ([8]; pH 7 or lower, room temperature to about 40° C.): without a noticeable loss
- phthalaldehyde lost on storage ([8]; pH 9, room temperature): about 14%
- time for sporicidal activity [9, 11]: 24 h
- time to achieve sterilization ([9]; 1.0% phthalaldehyde): 10 h

Compound: cupric ascorbate
- effect of salt concentration on sporicidal activity ([3]; salt ranging from 0 to 1M): not affected

Compound: OCl [sodium hypochlorite]
- effect of salt concentration on sporicidal activity ([3]; salt ranging from 0 to 1M): not affected

Compound: Oc1ccccc1 [phenol]
- effect of salt concentration on sporicidal activity [3]: not affected

Compound: CCCC=O [butyraldehyde]
- effect of addition of NaHCO3 on sporicidal action [2]: did not affect

Compound: [F-].[Na+] [1000 mM NaF, sodium fluoride]
- Log Reduction/mL, 8 hr ([1]; 20° C.): 0.0 log/mL

Compound: O=CCCCC=O [2.4% Glutaraldehyde, glutaraldehyde]
- effect of salt concentration on sporicidal activity ([3]; salt ranging from 0 to 1M): increasing with an increase in concentration of sodium bicarbonate or sodium chloride
- Log Reduction/mL (3 hr, 20° C., pH = 8) [1]: <1.1 log/mL
